# Source: PMC5578959, “Selective LRRK2 kinase inhibition reduces phosphorylation of endogenous Rab10 and Rab12 in human peripheral mononuclear blood cells” (Scientific Reports, 2017)
# pIC50: −log10 of the molar value.
# Assays:
# [1] = tested on: Regulator of telomere elongation helicase 1 (RTEL1); assay: Global proteome analysis, immune stimulated human PBMCs; type: cell-based; details: 100 nM, 24 hrs
# Experimental: (§1) Freshly isolated PBMCs were plated at a density ranging from 7–20 × 10^6 cells in 10 cm petri dishes (Costar 3262) in RPMI-1640 media (Gibco 61870–010) supplemented with 10% non-heat inactivated FBS, 5 ml Antimycotic (Sigma cat:5965) with or without an immune stimulation cocktail consisting of 400 nM phorbol 12-myristate 13-acetate (PMA) and 100 ng/ml interferon-γ (INF-γ). After 48 hrs in culture the cultures were added a fifth of the volume media containing 5x the final concentration of the respective LRRK2 inhibitor with or without PMA and interferon-γ. […] Approximately, 400 µg of protein from each individual donor was needed in order to run the full PBMC stimulation and inhibition study with subsequent global proteome and phosphoproteome (PhosphoScout®) analyses. […]
# (§2) Upon the respective treatments cells were washed with cold PBS, snap-frozen in liquid N2 and shipped to Evotec on dry-ice. […] Cell lysis was performed in ice-cold lysis buffer (8 M urea, 50 mM Tris pH 8.2, 10 mM sodium pyrophosphate, 5 mM EDTA, 5 mM EGTA, 10 mM sodium fluoride, 10 mM β-glycerophosphate, 10 mM sodium orthovanadate, phosphatase inhibitor cocktail 2 and 3 (Sigma, 1:100 (v/v)) and Complete protease inhibitor cocktail tablets (Roche). Cell extracts were sonicated on ice and the cell debris was removed by centrifugation before protein concentrations were determined (Bradford, BioRad). […]
# LRRK2 = assay: as above; type: cell-based; details: 100 nM, 24 hrs, not statistically significant (q-value: 0.08)
# Experimental: as §1, §2
# LRRK2 G2019S = molecular target: T1, LRRK2 G2019S (Homo sapiens, UniProt Q5S007, G2019S); assay: Odyssey CLx 96-well ICW assay, LRRK2-Ser935 phosphorylation in transfected HEK293 cells; type: cell-based; details: transiently transfected HEK293 cells, overactive variant G2019S, 1 h, mean, n = 3
# T1 construct: expressed in transfected cells; host or cells: HEK293
# From the text: (§3) Plasmids encoding various LRRK2 and Rab GTPase protein variants were transiently expressed in HEK293 cells using Lipofectamine®2000 according to the manufacturer’s instructions (Thermo Fisher Scientific, US).
# (§4) HEK293 cells grown in clear-bottom 96-well plates were transfected with either wild type LRRK2, kinase overactive variant G2019S, inhibition-resistant mutant A2016T or mock, respectively. […] Subsequently, the plates were processed as previously described.
# LRRK2 WT = LRRK2 WT (Homo sapiens, UniProt Q5S007); assay: as above; type: cell-based; details: transiently transfected HEK293 cells, 1 h, mean, n = 3
# From the text: as §3, §4
# LRRK2 A2016T = molecular target: T2, LRRK2 A2016T (Homo sapiens, UniProt Q5S007, A2016T); assay: as above; type: cell-based; details: transiently transfected HEK293 cells, inhibition resistant mutant A2016T, 1 h, mean, n = 3
# T2 construct: expressed in transfected cells; host or cells: HEK293
# From the text: as §3, §4
# Rab12-pSer106 = assay: Western Blot, HEK293 cells co-expressing HA-Rab12 and LRRK2 variants; type: cell-based, human; details: 100 nM; HEK293 co-overexpressing HA-Rab12 and LRRK2 WT, G2019S or R1441C
# Experimental: as §3
# (§5) HEK293 cells were plated at a density of 1 × 10^6 cells/well in 6-well plates pre-coated for 1 hr at 37 °C with poly-L-lysin. Subsequent to the transient transfection HEK293 cells were harvested using 1 mL cold Phosphate Buffered Saline (PBS) buffer (Invitrogen, California, US) and subsequently centrifuged at 800 g for 2 minutes. Cell pellets were resuspended and solubilized in 100 µL lysis buffer (50 mM Tris hydrochloride, 1 mM magnesium chloride, 1% Triton, 0.1% sodium dodecyl sulfate (SDS), pH 8.0) on ice for 20 minutes and then centrifuged at 20,000 g for 30 minutes at 4 °C. The solubilized crude cell lysate was size mobility separated by SDS-polyacrylamide gel electrophoresis (SDS-PAGE). LRRK2 was separated on a 3–8% Tris-Acetate gel (NuPAGE® Tris-Acetate Mini Gels, Life Technologies, Paisley, UK) and Rab10 and Rab12 were separated using a NuPAGE® Novex 4–12% Bis-Tris Gel (Invitrogen, California, US). An amount of 10 µg total protein was loaded in each well. Proteins were transferred to immobilon-FL PVDF membranes (Millipore, Billerica, US).
# Rab10-pThr73 = assay: Western Blot, HEK293 cells co-expressing HA-Rab10 and LRRK2 variants; type: cell-based, human; details: 100 nM; HEK293 co-overexpressing HA-Rab10 and LRRK2 WT, G2019S or R1441C
# Experimental: as §3, §5
# GPRK5 = tested on: T3, GPRK5; assay: KiNativ profiling in human PBMCs; type: binding; details: Lys2
# T3 construct: purchased ActivX Technologies (KiNativ)
# FAK = tested on: T4, FAK; assay: KiNativ profiling in human PBMCs; type: binding; details: Activation Loop
# T4 construct: purchased ActivX Technologies (KiNativ)
# LRRK2 WT, sequence (Q5S007 whole entry): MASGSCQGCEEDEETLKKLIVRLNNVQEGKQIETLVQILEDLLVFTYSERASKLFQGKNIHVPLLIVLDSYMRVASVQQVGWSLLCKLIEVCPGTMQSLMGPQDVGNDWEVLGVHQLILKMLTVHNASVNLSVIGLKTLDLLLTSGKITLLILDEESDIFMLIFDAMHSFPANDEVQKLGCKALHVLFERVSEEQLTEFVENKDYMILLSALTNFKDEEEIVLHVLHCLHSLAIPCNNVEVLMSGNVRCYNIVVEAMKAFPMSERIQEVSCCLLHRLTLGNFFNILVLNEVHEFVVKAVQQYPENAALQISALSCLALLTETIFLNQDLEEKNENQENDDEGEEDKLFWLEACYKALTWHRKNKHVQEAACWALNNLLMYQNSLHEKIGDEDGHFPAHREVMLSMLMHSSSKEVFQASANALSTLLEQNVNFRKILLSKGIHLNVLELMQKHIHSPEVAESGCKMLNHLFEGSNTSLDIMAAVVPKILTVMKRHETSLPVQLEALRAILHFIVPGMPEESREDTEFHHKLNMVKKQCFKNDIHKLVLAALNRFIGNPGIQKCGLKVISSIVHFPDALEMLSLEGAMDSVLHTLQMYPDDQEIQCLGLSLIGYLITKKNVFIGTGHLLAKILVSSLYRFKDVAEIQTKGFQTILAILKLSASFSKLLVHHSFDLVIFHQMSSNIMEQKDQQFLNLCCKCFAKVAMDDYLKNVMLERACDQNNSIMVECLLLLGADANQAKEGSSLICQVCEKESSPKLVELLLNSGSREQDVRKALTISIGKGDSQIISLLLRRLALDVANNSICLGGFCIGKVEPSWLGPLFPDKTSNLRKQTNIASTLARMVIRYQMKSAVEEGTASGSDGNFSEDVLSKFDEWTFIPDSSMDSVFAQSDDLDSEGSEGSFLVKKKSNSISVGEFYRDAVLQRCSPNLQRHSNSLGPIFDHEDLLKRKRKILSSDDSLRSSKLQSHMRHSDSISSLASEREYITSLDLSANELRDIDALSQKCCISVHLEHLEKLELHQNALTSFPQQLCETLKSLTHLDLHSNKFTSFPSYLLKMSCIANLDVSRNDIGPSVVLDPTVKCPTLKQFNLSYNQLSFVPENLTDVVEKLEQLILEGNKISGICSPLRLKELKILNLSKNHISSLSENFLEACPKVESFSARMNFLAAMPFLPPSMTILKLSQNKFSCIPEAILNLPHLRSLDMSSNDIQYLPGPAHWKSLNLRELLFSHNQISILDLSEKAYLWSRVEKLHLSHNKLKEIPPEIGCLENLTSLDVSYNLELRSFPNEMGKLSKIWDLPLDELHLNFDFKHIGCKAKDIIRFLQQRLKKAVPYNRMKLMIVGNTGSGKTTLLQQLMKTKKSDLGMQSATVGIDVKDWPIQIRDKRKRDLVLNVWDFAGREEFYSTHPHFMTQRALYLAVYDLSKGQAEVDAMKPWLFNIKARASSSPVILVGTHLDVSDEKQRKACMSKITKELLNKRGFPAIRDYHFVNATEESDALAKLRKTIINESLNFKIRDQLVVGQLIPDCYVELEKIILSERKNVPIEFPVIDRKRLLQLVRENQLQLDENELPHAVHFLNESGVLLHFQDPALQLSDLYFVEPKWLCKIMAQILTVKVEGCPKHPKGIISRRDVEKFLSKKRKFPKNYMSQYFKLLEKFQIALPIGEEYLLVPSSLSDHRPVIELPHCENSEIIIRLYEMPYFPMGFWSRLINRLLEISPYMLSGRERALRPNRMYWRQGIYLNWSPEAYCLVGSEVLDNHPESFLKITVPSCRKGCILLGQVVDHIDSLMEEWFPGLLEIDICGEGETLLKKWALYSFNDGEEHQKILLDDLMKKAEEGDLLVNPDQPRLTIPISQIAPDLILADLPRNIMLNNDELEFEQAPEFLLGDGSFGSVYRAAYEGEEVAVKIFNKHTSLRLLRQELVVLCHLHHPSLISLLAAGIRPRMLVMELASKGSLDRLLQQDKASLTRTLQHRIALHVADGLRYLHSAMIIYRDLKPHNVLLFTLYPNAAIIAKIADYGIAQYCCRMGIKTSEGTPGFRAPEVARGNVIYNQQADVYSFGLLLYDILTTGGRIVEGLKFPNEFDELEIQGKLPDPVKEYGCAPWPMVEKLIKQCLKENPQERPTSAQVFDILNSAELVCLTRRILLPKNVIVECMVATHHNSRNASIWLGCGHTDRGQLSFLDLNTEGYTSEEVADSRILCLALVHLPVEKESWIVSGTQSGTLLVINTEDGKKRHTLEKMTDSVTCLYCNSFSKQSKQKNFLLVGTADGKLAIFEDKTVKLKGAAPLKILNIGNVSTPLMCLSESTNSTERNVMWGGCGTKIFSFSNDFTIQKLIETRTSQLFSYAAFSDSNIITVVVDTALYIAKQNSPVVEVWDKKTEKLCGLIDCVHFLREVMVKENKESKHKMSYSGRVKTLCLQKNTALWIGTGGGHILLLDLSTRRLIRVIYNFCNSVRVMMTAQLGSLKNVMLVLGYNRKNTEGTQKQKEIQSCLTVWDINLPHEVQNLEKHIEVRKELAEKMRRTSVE
# T1 sequence (Q5S007 whole entry G2019S): as the sequence (Q5S007 whole entry) above, with G2019S counted along it
# T2 sequence (Q5S007 whole entry A2016T): as the sequence (Q5S007 whole entry) above, with A2016T counted along it
Compound,RTEL1 expression level downregulated [1],LRRK2 down-regulated on the protein level (LRRK2),pIC50 (LRRK2 G2019S),pIC50 (LRRK2 WT),pIC50 (LRRK2 A2016T),phosphorylation of Rab12 (pSer106) (Rab12-pSer106),phosphorylation of Rab10 (pThr73) (Rab10-pThr73),% Inhibition (GPRK5; 0.1µM),% Inhibition (GPRK5; 1µM),% Inhibition (FAK; 0.1µM),% Inhibition (FAK; 1µM)
Cc1cccc(-c2cc(Nc3ccn(C)n3)nc3[nH]cc(C#N)c23)c1 [Lu AF58786],2 fold,approximately 1.7 fold,7.72,7.92,7.03,statistically significant reduction,no phosphorylation,,,,
Cn1cc(-c2c[nH]c3ncnc(N4CCOCC4)c23)cc1C#N [PFE-360],,,,,,,,19.3%,1.5%,2.6%,26.4%
